Values quoted from earlier work, collected in patent US8088597B2, “Blood pressure lowering peptides from glycomacropeptide” (DSM IP Assets B.V., priority 2005, dated 2012).

Columns and labels:
ACE = ACE (Homo sapiens, UniProt P12821); conditions: reported in the literature
[1] = tested on: spontaneously hypertensive rats; conditions: tripeptides derived from lactic acid bacteria fermented bovine milk; Nakamura et al. 1995

Chain of ACE (P12821 30-1306, species assumed): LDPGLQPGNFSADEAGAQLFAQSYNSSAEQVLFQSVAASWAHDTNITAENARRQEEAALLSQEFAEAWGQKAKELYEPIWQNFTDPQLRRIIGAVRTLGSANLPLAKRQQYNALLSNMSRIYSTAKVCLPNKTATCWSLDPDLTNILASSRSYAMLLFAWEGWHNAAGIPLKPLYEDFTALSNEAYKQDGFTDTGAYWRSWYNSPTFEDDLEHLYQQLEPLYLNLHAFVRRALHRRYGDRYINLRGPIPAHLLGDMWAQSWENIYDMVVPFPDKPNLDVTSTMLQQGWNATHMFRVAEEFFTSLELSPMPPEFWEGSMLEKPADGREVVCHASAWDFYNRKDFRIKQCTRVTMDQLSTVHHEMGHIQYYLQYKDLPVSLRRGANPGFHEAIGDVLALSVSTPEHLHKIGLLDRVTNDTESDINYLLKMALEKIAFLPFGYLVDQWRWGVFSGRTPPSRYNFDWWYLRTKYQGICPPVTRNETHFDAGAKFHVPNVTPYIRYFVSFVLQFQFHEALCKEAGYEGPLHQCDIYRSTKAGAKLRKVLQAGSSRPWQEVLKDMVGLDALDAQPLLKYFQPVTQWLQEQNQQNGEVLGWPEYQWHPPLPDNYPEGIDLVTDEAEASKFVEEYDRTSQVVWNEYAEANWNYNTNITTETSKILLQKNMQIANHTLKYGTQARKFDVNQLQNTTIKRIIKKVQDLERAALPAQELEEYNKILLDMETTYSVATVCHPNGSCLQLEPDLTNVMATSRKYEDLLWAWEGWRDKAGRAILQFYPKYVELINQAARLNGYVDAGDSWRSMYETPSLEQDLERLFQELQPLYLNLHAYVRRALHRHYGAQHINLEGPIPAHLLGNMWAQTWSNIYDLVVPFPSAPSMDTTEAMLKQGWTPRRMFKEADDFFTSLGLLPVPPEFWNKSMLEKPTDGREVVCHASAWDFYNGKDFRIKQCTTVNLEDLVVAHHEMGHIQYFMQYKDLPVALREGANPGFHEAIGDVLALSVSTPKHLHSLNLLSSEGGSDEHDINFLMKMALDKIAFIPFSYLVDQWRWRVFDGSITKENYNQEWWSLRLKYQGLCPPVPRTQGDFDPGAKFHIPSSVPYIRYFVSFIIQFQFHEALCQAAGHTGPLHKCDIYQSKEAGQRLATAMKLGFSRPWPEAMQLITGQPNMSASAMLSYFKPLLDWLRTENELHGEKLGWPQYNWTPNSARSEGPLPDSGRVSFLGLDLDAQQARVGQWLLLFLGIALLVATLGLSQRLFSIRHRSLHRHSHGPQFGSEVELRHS

ACE inhibiting activity (ACE) | Substance | antihypertensive effects [1]
Strong ACE inhibiting activities | Leu-Pro-Pro | 
Strong ACE inhibiting activities | Ile-Pro-Pro | confirmed

Substance | ACE inhibiting activity (ACE) | antihypertensive effects [1]
Val-Pro-Pro | Strong ACE inhibiting activities | confirmed
